Data on 1 compound can be found in ChEMBL document CHEMBL5385928, “Sokotrasterol Sulfate Suppresses IFN-γ-Induced PD-L1 Expression by Inhibiting JAK Activity” (J Nat Prod, 2024).

The test system of data set [1] is BXPC-3. The data set is described as follows: Effect on cell viability in human BXPC-3 cells at 2.5 to 10 uM incubated for 48 hrs by CellTiter-Glo assay. In kind it is toxicity, cell-based. To be noted: bxpc-3, 48 h, dose 2.5-10 µM.
Data set [2] concerns the target Non-receptor tyrosine-protein kinase TYK2 (Homo sapiens, UniProt P29597). The data set is described as follows: Inhibition of N-terminal GST-tagged human TYK2 (871to 1187 residues) expressed in Sf21 cells incubated for 30 mins in presence of ATP by LANCE Ultra assay. Background: In TR-FRET formats the signal depends on donor and acceptor labels being close together.

For data set [3], the target named is T1, Tyrosine-protein kinase JAK2 (Homo sapiens, UniProt O60674). The experiment in a line: Inhibition of N-terminal His-tagged human JAK2 (826 to 1132 residues) expressed in Sf21 cells incubated for 30 mins in presence of ATP by LANCE Ultra assay.
Data set [4] concerns the target Transcription factor p65 (Homo sapiens) (UniProt Q04206). The data set is described as follows: Inhibition of p65 phosphorylation in human BXPC-3 cells at 2.5 to 10 uM preincubated with compound for 1 hrs followed by IFN-gamma stimulation for 1 hrs by Western blot analysis. It counts as cell-based. To be noted: dose 2.5-10 µM, time 2.0 hrs.
For data set [5], the system named is B16-OVA melanoma cell. The data set is described as follows: Sensitization of mouse B16-OVA melanoma cells to OT-1 T cells assessed as increase in antigen specific T-cell killing at 2.5 to 10 uM preincubated with compound in presence of mouse IFN-gamma for 24 hrs followed by OT-1 T cell addition for 24 hrs by crystal violet staining based analysis. It counts as functional. To be noted: dose 2.5-10 µM, time 48.0 hrs.

The nature of data set [6]: Inhibition of IFN-gamma induced PD-L1 protein expression in human SK-OV-3 cells incubated for 48 hrs by high-throughput flow cytometric analysis. To be noted: SK-OV-3, 48 h.
Data set [7] concerns the target Transcription factor p65 (Homo sapiens) (UniProt Q04206). The experiment in a line: Inhibition of p65 phosphorylation in human A549 cells at 2.5 to 10 uM preincubated with compound for 1 hrs followed by IFN-gamma stimulation for 1 hrs by Western blot analysis. It counts as cell-based. The conditions noted are these: dose 2.5-10 µM, time 2.0 hrs. (In western blotting, separated proteins are transferred to a membrane and probed.)

In data set [8] the target is T1, Tyrosine-protein kinase JAK2. To be noted: BXPC-3, Lysate, dose 10.0 µM, time 1.0 hrs.
For data set [9], the target named is T2, Tyrosine-protein kinase JAK3 (Homo sapiens, UniProt P52333).
T2 sequence (P52333 whole entry): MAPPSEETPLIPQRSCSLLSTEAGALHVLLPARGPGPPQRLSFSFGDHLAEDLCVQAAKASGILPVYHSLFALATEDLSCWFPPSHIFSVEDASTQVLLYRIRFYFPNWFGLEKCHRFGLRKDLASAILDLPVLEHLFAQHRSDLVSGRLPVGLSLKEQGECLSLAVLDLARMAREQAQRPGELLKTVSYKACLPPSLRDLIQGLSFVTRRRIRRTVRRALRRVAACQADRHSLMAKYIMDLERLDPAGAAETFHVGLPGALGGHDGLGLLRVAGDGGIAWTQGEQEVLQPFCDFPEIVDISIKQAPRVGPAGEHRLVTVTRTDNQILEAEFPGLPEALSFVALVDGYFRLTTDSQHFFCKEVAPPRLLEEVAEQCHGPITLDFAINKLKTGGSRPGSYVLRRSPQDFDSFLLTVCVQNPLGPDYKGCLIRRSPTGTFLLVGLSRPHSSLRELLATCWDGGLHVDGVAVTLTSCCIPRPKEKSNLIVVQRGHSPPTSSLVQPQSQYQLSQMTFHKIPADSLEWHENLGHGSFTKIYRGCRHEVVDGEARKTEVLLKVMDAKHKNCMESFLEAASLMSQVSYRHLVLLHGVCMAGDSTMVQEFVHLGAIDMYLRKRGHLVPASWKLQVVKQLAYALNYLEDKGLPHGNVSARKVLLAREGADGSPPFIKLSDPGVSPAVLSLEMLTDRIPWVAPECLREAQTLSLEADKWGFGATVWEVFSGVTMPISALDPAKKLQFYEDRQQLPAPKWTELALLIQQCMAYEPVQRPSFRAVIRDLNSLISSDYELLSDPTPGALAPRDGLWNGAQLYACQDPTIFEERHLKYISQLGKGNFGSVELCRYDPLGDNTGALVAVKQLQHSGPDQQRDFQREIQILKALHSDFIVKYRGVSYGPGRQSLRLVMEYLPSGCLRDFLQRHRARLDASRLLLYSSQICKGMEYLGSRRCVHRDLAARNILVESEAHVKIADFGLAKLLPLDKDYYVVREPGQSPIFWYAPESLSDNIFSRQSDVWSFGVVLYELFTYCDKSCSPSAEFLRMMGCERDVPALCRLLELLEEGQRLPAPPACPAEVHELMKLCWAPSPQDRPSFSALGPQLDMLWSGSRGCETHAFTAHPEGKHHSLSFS
The data set is described as follows: Inhibition of N-terminal His-tagged human JAK3 (795 to 1124 residues) expressed in Sf21 cells incubated for 30 mins in presence of ATP by LANCE Ultra assay.

The nature of data set [10]: Inhibition of IFN-gamma induced PD-L1 protein expression in human BXPC-3 cells incubated for 48 hrs by high-throughput flow cytometric analysis. To be noted: BXPC-3, 48 h. A general note: In flow cytometry, cells or beads pass a laser one at a time.
The subject of data set [11] is BXPC-3. The data set is described as follows: Effect on cell death in human BXPC-3 cells at 2.5 to 10 uM incubated for 48 hrs by microscopic analysis. In kind it is toxicity, cell-based. The conditions noted are these: bxpc-3, 48 h, dose 2.5-10 µM.
A short description of data set [12]: Inhibition of IFN-gamma induced PD-L1 protein expression in human A549 cells incubated for 48 hrs by high-throughput flow cytometric analysis. The conditions noted are these: A549, 48 h.
In data set [13] the test system is B16-OVA melanoma cell. The data set is described as follows: Sensitization of mouse B16-OVA melanoma cells to OT-1 T cells assessed as reduction in cell viability preincubated with compound in presence of mouse IFN-gamma for 24 hrs followed by OT-1 T cell addition for 24 hrs by CellTiter-Glo assay. In kind it is functional, cell-based. The conditions noted are these: dose 2.5-10 µM.

Data set [14] relates to BXPC-3. The data set is described as follows: Reversal of IFN-gamma induced cell death in human BXPC-3 cells at 2.5 to 10 uM incubated for 48 hrs by microscopic analysis. In kind it is functional, cell-based. To be noted: dose 2.5-10 µM.
In data set [15] the target is Transcription factor p65 (Homo sapiens) (UniProt Q04206). The experiment in a line: Inhibition of p65 phosphorylation in human SK-OV-3 cells at 2.5 to 10 uM preincubated with compound for 1 hrs followed by IFN-gamma stimulation for 1 hrs by Western blot analysis. In kind it is cell-based. The conditions noted are these: dose 2.5-10 µM, time 2.0 hrs.

Active and inactive are the calls of the source. No cut-off for these calls is given here.

Sequence of Transcription factor p65 (Homo sapiens) (Q04206 whole entry): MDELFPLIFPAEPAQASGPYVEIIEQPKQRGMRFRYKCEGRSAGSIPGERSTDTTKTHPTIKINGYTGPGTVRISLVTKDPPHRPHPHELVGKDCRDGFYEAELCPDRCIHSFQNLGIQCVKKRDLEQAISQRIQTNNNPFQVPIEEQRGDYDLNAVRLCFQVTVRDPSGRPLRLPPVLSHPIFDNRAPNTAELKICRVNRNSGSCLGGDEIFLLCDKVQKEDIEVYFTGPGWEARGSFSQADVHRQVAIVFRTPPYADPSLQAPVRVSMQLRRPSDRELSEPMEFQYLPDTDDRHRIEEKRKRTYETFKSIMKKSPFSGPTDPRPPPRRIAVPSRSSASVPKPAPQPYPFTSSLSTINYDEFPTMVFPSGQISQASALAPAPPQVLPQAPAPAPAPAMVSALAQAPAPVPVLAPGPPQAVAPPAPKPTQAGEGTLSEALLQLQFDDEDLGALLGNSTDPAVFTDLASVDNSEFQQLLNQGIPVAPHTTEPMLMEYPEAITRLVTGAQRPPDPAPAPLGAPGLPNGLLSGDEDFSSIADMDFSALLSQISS
T1 sequence (O60674 whole entry, the tested form may be a part): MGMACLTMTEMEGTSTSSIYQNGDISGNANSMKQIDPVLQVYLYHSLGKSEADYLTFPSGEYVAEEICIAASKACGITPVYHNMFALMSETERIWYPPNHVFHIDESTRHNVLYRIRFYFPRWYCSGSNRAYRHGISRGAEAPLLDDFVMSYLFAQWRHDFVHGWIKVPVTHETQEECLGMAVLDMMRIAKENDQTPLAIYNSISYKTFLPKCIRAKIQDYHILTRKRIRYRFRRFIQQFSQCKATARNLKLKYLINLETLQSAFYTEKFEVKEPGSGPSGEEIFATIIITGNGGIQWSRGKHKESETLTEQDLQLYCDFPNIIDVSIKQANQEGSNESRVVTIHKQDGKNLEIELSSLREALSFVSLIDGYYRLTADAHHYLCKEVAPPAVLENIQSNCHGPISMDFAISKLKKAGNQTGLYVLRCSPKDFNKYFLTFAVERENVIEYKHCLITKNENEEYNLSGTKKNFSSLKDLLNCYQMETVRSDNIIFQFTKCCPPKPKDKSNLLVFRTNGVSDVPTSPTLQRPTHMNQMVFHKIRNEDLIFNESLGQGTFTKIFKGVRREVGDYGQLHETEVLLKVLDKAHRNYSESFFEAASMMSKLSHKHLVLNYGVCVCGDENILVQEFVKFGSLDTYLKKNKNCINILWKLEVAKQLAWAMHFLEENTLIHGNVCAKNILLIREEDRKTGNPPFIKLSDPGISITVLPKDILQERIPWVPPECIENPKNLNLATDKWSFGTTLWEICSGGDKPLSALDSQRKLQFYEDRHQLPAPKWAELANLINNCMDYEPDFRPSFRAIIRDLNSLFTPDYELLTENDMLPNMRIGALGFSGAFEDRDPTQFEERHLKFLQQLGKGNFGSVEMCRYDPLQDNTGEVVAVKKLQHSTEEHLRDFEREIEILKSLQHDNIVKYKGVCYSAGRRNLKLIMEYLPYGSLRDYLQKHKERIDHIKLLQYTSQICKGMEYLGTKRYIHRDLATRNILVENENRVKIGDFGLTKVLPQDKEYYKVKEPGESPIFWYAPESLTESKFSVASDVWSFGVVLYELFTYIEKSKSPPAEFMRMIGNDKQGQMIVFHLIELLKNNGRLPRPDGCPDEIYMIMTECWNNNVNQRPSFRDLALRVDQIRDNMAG
Sequence of Non-receptor tyrosine-protein kinase TYK2 (P29597 whole entry, the tested form may be a part): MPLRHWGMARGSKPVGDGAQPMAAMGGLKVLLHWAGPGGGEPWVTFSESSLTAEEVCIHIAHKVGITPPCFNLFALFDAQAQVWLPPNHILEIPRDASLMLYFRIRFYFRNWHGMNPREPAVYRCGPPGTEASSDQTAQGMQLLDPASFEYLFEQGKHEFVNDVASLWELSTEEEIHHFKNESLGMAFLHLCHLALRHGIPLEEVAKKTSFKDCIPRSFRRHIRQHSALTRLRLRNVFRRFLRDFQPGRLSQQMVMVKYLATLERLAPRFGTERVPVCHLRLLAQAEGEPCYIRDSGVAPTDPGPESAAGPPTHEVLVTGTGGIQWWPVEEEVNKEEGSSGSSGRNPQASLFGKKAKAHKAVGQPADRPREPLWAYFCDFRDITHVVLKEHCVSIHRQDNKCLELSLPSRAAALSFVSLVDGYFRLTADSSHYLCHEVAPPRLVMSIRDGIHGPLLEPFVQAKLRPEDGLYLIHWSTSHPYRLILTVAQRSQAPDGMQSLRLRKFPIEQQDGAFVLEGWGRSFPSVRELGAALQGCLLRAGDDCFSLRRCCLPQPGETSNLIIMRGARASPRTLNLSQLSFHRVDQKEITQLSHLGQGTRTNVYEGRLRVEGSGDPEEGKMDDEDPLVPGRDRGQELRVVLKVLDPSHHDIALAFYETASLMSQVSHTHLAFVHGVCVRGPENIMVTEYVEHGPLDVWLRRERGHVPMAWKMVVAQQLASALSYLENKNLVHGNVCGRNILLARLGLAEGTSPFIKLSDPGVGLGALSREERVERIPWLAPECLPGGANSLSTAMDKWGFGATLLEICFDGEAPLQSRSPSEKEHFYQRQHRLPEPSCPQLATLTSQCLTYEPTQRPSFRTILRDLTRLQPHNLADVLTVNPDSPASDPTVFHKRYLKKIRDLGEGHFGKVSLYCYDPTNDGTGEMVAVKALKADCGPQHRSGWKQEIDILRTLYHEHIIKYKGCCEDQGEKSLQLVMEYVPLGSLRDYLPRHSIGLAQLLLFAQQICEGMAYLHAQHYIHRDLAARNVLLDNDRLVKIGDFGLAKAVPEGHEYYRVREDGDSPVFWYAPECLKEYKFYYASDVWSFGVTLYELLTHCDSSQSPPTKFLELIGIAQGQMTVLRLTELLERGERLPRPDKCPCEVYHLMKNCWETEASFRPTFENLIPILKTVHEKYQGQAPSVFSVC

In general, IC50 refers to the concentration that gives 50% inhibition. Usually ΔTm stands for the shift of the melting midpoint relative to a reference. As for `C/C(=C\C[C@@H](C)[C@H]1CC[C@H]2[C@@H]3C[C@H](OS(=O)(=O)[O-])[C@H]4C[C@H](OS(=O)(=O)[O-])[C@@H](OS(=O)(=O)[O-])C[C@]4(C)[C@H]3CC[C@]12C)C(C)(C)C(C)C.[Na+].[Na+].[Na+]`, the values for the Activity entry with BXPC-3 [1], with BXPC-3 [11] and with B16-OVA melanoma cell [13] were “Non-Toxic”, “Non-Toxic” and “Dose-Dependent Effect”, respectively. For the same compound, the IC50 came to 530 nM in data set [2]; 1200 nM in data set [3]; 6500 nM in data set [6]; 520 nM in [9]; 4100 nM in data set [10]; 2800 nM in data set [12]. Besides, the inhibition entry in data set [4], in [7] and in data set [15] was “inactive” each time. For the same compound, the outcome with B16-OVA melanoma cell [5] and in the data set with BXPC-3 [14] was Active. For the same compound, the ΔTm in data set [8] came to 11 °C.
